# According to paper PMC11554305, “Functional identification of soluble uric acid as an endogenous inhibitor of CD38” (eLife, 2024):
# Legend:
# uricase = molecular target: uricase; parameters: method as in Fridovich, 1965; details: ref Fridovich, 1965; cited from earlier work
# WT BMDMs = assay: Intracellular NAD+ in primed WT BMDMs treated with NMN; format: cell-based, mouse; details: sUA 100, 200 and 500 μM; NMN 100 μM, 6 hr
# Procedure: Bone marrow cells were isolated from 10- to 12-week-old WT or CD38 KO mice (both male and female) by washing the marrow cavity with sterile PBS. The collected bone marrow cells were filtered by 70 μm strainers and then centrifuged at 1000 rpm, 4°C for 5 min. The cell pellet was resuspended in 2 mL red blood cell (RBC) lysis buffer for 30 s, then 8 mL complete RPMI-1640 medium (10% FBS, 1% penicillin/streptomycin, and 50 μM 2-mercaptoethanol) was added to terminate the lysis. After 5 min centrifugation at 1000 rpm, 4°C, the cells were resuspended in fresh complete RPMI-1640 medium and maintained for 4 hr in an incubator. Adherent cells were discarded, whereas non-adherent cells were cultured in complete RPMI-1640 medium containing 20 ng/mL M-CSF. After 3-day differentiation, the medium was replaced with fresh complete RPMI-1640 medium containing 20 ng/mL M-CSF. On the 7th day, BMDMs were collected for subsequent experiments. BMDMs were primed with 100 ng/mL ultrapure LPS for 4 hr for canonical inflammasome assay. For metabolic assay of NMN, BMDMs were primed with 100 ng/mL ultrapure LPS for 8 hr to induce higher protein expression of CD38.
# WT BMDMs were primed with 100 ng/mL ultrapure LPS for 8 hr. Then, the cells were washed twice with sterile PBS. Afterward, the cells were incubated in control or 100 μM NMN-supplemented RPMI-1640 medium in the presence of sUA or 78c. […]
# primed THP-1 cells = assay: Canonical inflammasome assay, IL-1β release in primed THP-1 cells; format: cell-based, human
# Procedure: Human IL-1β, mouse IL-1β, IL-6, IL-18, TNF-α, and CXCL1 levels were measured according to the protocols provided by the manufacturer. Serum samples were diluted before ELISA when applicable. In this study, all the samples were frozen after collection and thawed before ELISA.
# Naïve THP-1 cells were primed with 0.5 μM phorbol 12-myristate 13-acetate for 3 hr the day before stimulation. Primed THP-1 cells were pre-incubated in RPMI-1640 medium in the presence or absence of sUA (5 or 10 mg/dL) for 2 hr. The cells were then washed twice with sterile PBS, and were stimulated with MSU crystals, cLPS, zymosan, and ATP in serum-free RPMI-1640 medium for 4 hr.
# After stimulation, the culture medium was collected and centrifuged at 3000 rpm, 4°C for 5 min, the supernatant was collected and stored at –30°C until ELISA.
# primed WT BMDMs = assay: sUA uptake assay in primed WT BMDMs; format: cell-based, mouse; details: sUA 100, 200 or 500 μM, 2 or 15 hr
# Procedure: WT BMDMs were primed with 100 ng/mL ultrapure LPS for 4 hr. Then, the cells were washed twice with sterile PBS, and maintained in RPMI-1640 medium containing sUA (100, 200, or 500 μM) for 2 or 15 hr. Subsequently, the cells were washed twice with ice-cold sterile PBS to terminate uptake, 100 μL 5% ice-cold PCA was added into each well. The plates were placed on ice for 2 hr, then cell samples were collected and centrifuged at 15,000 rpm, 4°C for 10 min. The supernatant was used for subsequent handling and measurement (see LC-MS/MS analysis).
Induction of IL-1β release by sUA itself (primed THP-1 cells),sUA uptake (primed WT BMDMs),SMILES,Ki for uricase (uricase),Intracellular NAD+ in primed WT BMDMs treated with NMN (WT BMDMs),"IL-1β release after stimulation (primed THP-1 cells; sUA pre-incubation 2 hr, then MSU crystals, cLPS, zymosan or ATP)"
,,"O=C(O)c1nc(=O)[nH]c(=O)[nH]1 [OA, oxonic acid, reference compound]",nanomolar range,,
did not induce IL-1β release,very low,"O=c1[nH]c(=O)c2[nH]c(=O)[nH]c2[nH]1 [sUA, uric acid]",,failed to boost intracellular NAD^+,moderately limited IL-1β release
